The target of this test is T1, PARP (Homo sapiens, UniProt P09874).
T1 construct: endogenous in cells; host or cells: A549 human alveolar epithelial adenocarcinoma cells
The test can be described thus: PARP activity in hydrogen peroxide-stimulated A549 cells, whole-cell based assay (3H-NAD+ incorporation). The note with it: 15 min pretreatment (10 nM-300 nM), hydrogen peroxide-induced PARP activation, from dose-response curve. On the procedure: Human alveolar epithelial cells (A549), an adenocarcinoma cell line with the alveolar type 2 phenotype were cultured in […] medium supplemented with 10% fetal bovine serum. Cells were grown to 80% confluence in 12-well plates and pretreated with various concentrations (10 nM-300 nM) of an Indenoisoquinolinone Analog for 15 minutes. Hydrogen peroxide, a prototypical oxidant that induces DNA single strand breakage, was used to induce PARP activation. Hydrogen peroxide was diluted in culture media and added to the cells in a bolus of 20 μl. After 20 minutes of incubation, the medium was aspirated and 0.5 mL of assay buffer (56 mM HEPES pH 7.5, 28 mM KCl, 28 mM NaCl, 2 mM MgCl2, 0.01% w/v digitonin and 0.5 μCi/ml 3H-NAD^+) was added to cells. Following incubation in the assay buffer (15 minutes at 37° C.), PARP activity was measured. Cells were scraped from the plate, transferred to a 1.5 mL eppendorf tube and then added 200 μl of ice cold 50% w/v TCA. […] The contents of the tubes were added to 6.5 mL ScintiSafe Plus scintillation liquid (Fisher Scientific) and radioactivity was determined using a liquid scintillation counter (Wallac, Gaithersburg, Md.). […] EC50 values were determined from a dose-response curve. IC50 values were determined using a commercially available in vitro PARP-1 inhibition assay kit (Trevigen, Gaithersburg, Md., USA).

This note sets out measurements from patent publication US7652028B2, “Indenoisoquinolinone analogs and methods of use thereof” (Inotek Pharmaceuticals Corporation, priority 2005, dated 2010).

Each structure is given as a SMILES string.

T1 sequence (P09874 whole entry): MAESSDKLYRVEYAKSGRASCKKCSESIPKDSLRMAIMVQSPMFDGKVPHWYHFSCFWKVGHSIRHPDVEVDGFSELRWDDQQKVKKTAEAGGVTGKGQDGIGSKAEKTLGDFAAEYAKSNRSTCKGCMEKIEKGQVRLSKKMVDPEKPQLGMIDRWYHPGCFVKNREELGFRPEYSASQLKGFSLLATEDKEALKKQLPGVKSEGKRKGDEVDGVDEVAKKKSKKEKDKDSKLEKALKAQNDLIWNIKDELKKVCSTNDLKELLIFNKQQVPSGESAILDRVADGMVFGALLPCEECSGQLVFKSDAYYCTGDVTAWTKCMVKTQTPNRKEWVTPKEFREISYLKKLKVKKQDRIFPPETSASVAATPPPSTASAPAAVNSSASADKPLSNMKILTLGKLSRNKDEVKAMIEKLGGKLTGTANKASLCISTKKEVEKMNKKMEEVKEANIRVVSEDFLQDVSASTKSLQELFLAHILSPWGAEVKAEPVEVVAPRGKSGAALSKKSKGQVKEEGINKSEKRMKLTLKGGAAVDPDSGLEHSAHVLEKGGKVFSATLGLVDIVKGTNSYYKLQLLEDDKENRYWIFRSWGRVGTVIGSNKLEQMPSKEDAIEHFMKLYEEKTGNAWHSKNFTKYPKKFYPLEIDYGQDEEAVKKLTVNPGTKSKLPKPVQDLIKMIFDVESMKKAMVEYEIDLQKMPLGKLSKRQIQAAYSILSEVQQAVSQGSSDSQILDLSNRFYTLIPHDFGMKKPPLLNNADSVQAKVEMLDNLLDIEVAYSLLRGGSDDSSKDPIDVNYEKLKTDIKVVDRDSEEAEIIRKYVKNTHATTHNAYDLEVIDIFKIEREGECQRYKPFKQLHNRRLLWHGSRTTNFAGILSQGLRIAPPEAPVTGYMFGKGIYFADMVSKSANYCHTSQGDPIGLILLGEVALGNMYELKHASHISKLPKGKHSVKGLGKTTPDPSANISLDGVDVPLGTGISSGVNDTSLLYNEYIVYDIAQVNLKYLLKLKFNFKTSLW

`O=c1[nH]c2c(c3ccccc13)Cc1c(CO)cccc1-2` [(I)(25), 10-hydroxymethyl-5,6-dihydro-5-oxo-11-H-indeno[1,2-c]isoquinoline]: the concentration for a half-maximal effect (EC50) (in general, the concentration at which the effect is half-maximal) was found to be 0.29 µM.
